Measured values taken from patent publication US12145927B2 (BRISTOL-MYERS SQUIBB COMPANY, priority 2018, dated 2024).

Target: T1, human IDO1 (Homo sapiens, UniProt P14902)
T1 construct: expressed in transfected cells
Assay: IDO inhibition assay in human IDO1/HEK293 cells (IDO1 HEK Human)
Type: cell-based
Conditions: HEK293 cells stably expressing human IDO1; 20 hours incubation; absorbance at 490 nm after Ehrlich reagent
Method: HEK293 cells were transfected with a pCDNA-based mammalian expression vector harboring human IDO1 cDNA (NM 002164.2) by electroporation. They were cultured in medium (DMEM with 10% FBS) containing 1 mg/ml G418 for two weeks. Clones of HEK293 cells that stably expressed human IDO1 protein were selected and expanded for IDO inhibition assay.
The human IDO1/HEK293 cells were seeded at 10,000 cells per 50 μL per well with RPMI/phenol red free media contains 10% FBS in a 384-well black wall clear bottom tissue culture plate (Matrix Technologies LLC) 100 nL of certain concentration of compound was then added to each well using ECHO liquid handling systems. The cells were incubated for 20 hours in 37° C. incubator with 5% CO2.
The compound treatments were stopped by adding trichloroacetic acid (Sigma-Aldrich) to a final concentration at 0.2%. The cell plate was further incubated at 50° C. for 30 minute. The equal volume supernatant (20 μL) and 0.2% (w/v) Ehrlich reagent (4-dimethylaminobenzaldehyde, Sigma-Aldrich) in glacial acetic acid were mixed in a new clear bottom 384-well plate. This plate was then incubated at RT for 30 minute. The absorbance at 490 nm was measured on Envision plate reader.
Compound IC50 values were calculated using the counts of 500 nM of a reference standard treatment as one hundred percent inhibition, and counts of no compound but DMSO treatment as zero percent inhibition.

T1 sequence (P14902 whole entry): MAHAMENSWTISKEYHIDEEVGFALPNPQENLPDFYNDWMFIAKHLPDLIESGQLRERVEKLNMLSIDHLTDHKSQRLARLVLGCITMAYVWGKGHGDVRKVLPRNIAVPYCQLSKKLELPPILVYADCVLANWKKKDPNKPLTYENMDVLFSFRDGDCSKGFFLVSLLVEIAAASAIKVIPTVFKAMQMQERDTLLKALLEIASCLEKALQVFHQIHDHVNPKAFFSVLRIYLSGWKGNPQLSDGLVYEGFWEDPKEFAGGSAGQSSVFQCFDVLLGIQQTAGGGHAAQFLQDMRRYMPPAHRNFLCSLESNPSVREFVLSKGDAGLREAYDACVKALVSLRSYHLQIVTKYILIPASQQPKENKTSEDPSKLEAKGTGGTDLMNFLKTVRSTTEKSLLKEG

First: Cc1ccc(NC(=O)Nc2cc(-c3cc(F)ccc3C(=O)O)cc3c2O[C@H](C)[C@H]3c2ccccc2)cc1 (relative stereo) [Example 116, rel-4-fluoro-2-((2R,3S)-2-methyl-3-phenyl-7-(3-(p-tolyl)ureido)-2,3-dihydrobenzofuran-5-yl)benzoic acid]
Second: Cc1ccc(NC(=O)Nc2cc(-c3cc(C)ccc3C(=O)O)cc3c2OCCCC3c2ccccc2)cc1 (single isomer, unassigned) [Example 68, 4-methyl-2-(5-phenyl-9-(3-(p-tolyl)ureido)-2,3,4,5-tetrahydrobenzo[b]oxepin-7-yl)benzoic acid]
The IC50 of the first is 8.7-fold higher: 125 nM for the first, 14.4 nM for the second.

First: Cc1ccc(NC(=O)Nc2cc(-c3ccccc3S(=O)(=O)NC(=O)c3ccccc3)cc3c2OCCCC3c2ccccc2)cc1 (single isomer, unassigned) [Example 61, N-((2-(5-phenyl-9-(3-(p-tolyl)ureido)-2,3,4,5-tetrahydrobenzo[b]oxepin-7-yl)phenyl)sulfonyl)benzamide]
Second: COC(=O)c1c(C)cccc1-c1cc(NC(=O)Nc2ccc(C)cc2)c2c(c1)C(c1ccccc1)CCCO2 (centres unmarked) [Example 66, methyl 2-methyl-6-(5-phenyl-9-(3-(p-tolyl)ureido)-2,3,4,5-tetrahydrobenzo[b]oxepin-7-yl)benzoate]
The IC50 of the first is 7-fold higher: 2290 nM for the first, 327 nM for the second.

Compared with Cc1ccc(CC(=O)Nc2cc(-c3ccccc3-c3nnn[nH]3)cc3c2OCCCC3C)cc1 (centres unmarked) [Example 32, N-(7-(2-(1H-tetrazol-5-yl)phenyl)-5-methyl-2,3,4,5-tetrahydrobenzo[b]oxepin-9-yl)-2-(p-tolyl)acetamide], Cc1ccc(CC(=O)Nc2cc(-c3ccccc3-c3nnn[nH]3)cc3c2OCCCC3C2CC2)c(F)c1 (single isomer, unassigned) [39 (En. 1)] is higher in IC50: 419 nM for the first, greater than 6000 nM for the second. The first is the more potent here.

First: O=C(Nc1ccc(Cl)cc1F)Nc1cc(-c2ccccc2-c2nnn[nH]2)cc2c1OCCCC2C1CC1 (single isomer, unassigned) [41 (En. 1), 1-(7-(2-(1H-tetrazol-5-yl)phenyl)-5-cyclopropyl-2,3,4,5-tetrahydrobenzo[b]oxepin-9-yl)-3-(4-chloro-2-fluorophenyl)urea]
Second: O=C(Cc1ccccc1F)Nc1cc(-c2ccccc2-c2nnn[nH]2)cc2c1OCCCC2C1CC1 (single isomer, unassigned) [40 (En. 1), N-(7-(2-(1H-tetrazol-5-yl)phenyl)-5-cyclopropyl-2,3,4,5-tetrahydrobenzo[b]oxepin-9-yl)-2-(2-fluorophenyl)acetamide]
The IC50 of the first is 8.7-fold lower: 25.2 nM for the first, 219 nM for the second.

Compared with Cc1ccc(-c2nnn[nH]2)c(-c2cc(Nc3ccc(OC(F)F)cc3)c3c(c2)C(c2ccccc2)CCCO3)c1 (single isomer, unassigned) [Example 79, N-(4-(difluoromethoxy)phenyl)-7-(5-methyl-2-(1H-tetrazol-5-yl)phenyl)-5-phenyl-2,3,4,5-tetrahydrobenzo[b]oxepin-9-amine], Cc1cnc(Nc2cc(-c3ccccc3-c3nnn[nH]3)cc3c2OCCCC3c2ccccc2)nc1 (single isomer, unassigned) [55 (En. 2), N-(7-(2-(1H-tetrazol-5-yl)phenyl)-5-phenyl-2,3,4,5-tetrahydrobenzo[b]oxepin-9-yl)-5-methylpyrimidin-2-amine] is 2.3-fold higher in IC50: 33.5 nM for the first, 77.6 nM for the second. The first is the more potent here.

First: C=C[C@@H]1Oc2c(NC(=O)Nc3ccc(C)cc3)cc(-c3ccccc3-c3nnn[nH]3)cc2[C@H]1CCC(F)(F)F (single isomer, unassigned) [Example 101, 1-((trans)-5-(2-(1H-tetrazol-5-yl)phenyl)-3-(3,3,3-trifluoropropyl)-2-vinyl-2,3-dihydrobenzofuran-7-yl)-3-(p-tolyl)urea]
Second: C=CC1Oc2c(NC(=O)Nc3ccccc3F)cc(-c3ccccc3-c3nnn[nH]3)cc2C1c1ccccc1 (racemic) [Example 95]
The IC50 of the first is 12-fold lower: 7.1 nM for the first, 88 nM for the second.

Going from Cc1ccc(NC(=O)Nc2cc(-c3ccccc3-c3nnn[nH]3)cc3c2OCC(O)C(O)C3c2ccccc2)cc1 (single isomer, unassigned) [9 (En. 2), 1-(7-(2-(1H-tetrazol-5-yl)phenyl)-3,4-dihydroxy-5-phenyl-2,3,4,5-tetrahydrobenzo[b]oxepin-9-yl)-3-(p-tolyl)urea] to Cc1ccc(NC(=O)Nc2cc(-c3ccccc3-c3nnn[nH]3)cc3c2OCCC(C)C3c2ccccc2)cc1 (single isomer, unassigned) [Example 43, 1-(7-(2-(1H-tetrazol-5-yl)phenyl)-4-methyl-5-phenyl-2,3,4,5-tetrahydrobenzo[b]oxepin-9-yl)-3-(p-tolyl)urea], the IC50 falls from 579 nM to 30.1 nM (19-fold).

Compared with Fc1cnc(Nc2cc(-c3ccccc3-c3nnn[nH]3)cc3c2OCCCC3c2ccccc2)nc1 (single isomer, unassigned) [63 (En. 1), N-(7-(2-(1H-tetrazol-5-yl)phenyl)-5-phenyl-2,3,4,5-tetrahydrobenzo[b]oxepin-9-yl)-5-fluoropyrimidin-2-amine], c1ccc(C2CCCOc3c(Nc4nc5ccccc5o4)cc(-c4ccccc4-c4nnn[nH]4)cc32)cc1 (racemic) [Example 53, N-(7-(2-(1H-tetrazol-5-yl)phenyl)-5-phenyl-2,3,4,5-tetrahydrobenzo[b]oxepin-9-yl) benzo[d] oxazol-2-amine] is 130-fold lower in IC50: 539 nM for the first, 4.2 nM for the second. The second is the more potent here.

Going from CC1CCOc2c(Nc3nc4ccccc4[nH]3)cc(-c3ccccc3-c3nnn[nH]3)cc2C1c1ccccc1 (single isomer, unassigned) [Example 52, N-(7-(2-(1H-tetrazol-5-yl)phenyl)-4-methyl-5-phenyl-2,3,4,5-tetrahydrobenzo[b]oxepin-9-yl)-1H-benzo[d]imidazol-2-amine] to Cc1ccc(NC(=O)Nc2cc(-c3ccccc3-c3nnn[nH]3)cc3c2OCCC(C)C3c2ccccc2)cc1 (single isomer, unassigned) [Example 46, 1-(7-(2-(1H-tetrazol-5-yl)phenyl)-4-methyl-5-phenyl-2,3,4,5-tetrahydrobenzo[b]oxepin-9-yl)-3-(p-tolyl)urea], the IC50 falls from 499 nM to 0.78 nM (640-fold).

First: Fc1cccc2oc(Nc3cc(-c4ccccc4-c4nnn[nH]4)cc4c3OCCCC4C3CC3)nc12 (centres unmarked) [Example 28, N-(7-(2-(1H-tetrazol-5-yl)phenyl)-5-cyclopropyl-2,3,4,5-tetrahydrobenzo[b]oxepin-9-yl)-4-fluorobenzo[d]oxazol-2-amine]
Second: Cc1ccc(NC(=O)Nc2cc(-c3ccccc3-c3nc(=O)o[nH]3)cc3c2OCCCC3C2CC2)cc1 (single isomer, unassigned) [Example 33-1, 1-(5-cyclopropyl-7-(2-(5-oxo-2,5-dihydro-1,2,4-oxadiazol-3-yl)phenyl)-2,3,4,5-tetrahydrobenzo[b]oxepin-9-yl)-3-(p-tolyl)urea]
The IC50 of the first is 2.2-fold higher: 2.6 nM for the first, 1.2 nM for the second. The second is the more potent here.

Going from COC(=O)c1c(OC)cccc1-c1cc(NC(=O)Nc2ccc(C)cc2)c2c(c1)C(c1ccccc1)CCCO2 (centres unmarked) [Example 65, methyl 2-methoxy-6-(5-phenyl-9-(3-(p-tolyl)ureido)-2,3,4,5-tetrahydrobenzo[b]oxepin-7-yl)benzoate] to O=C(Nc1ccccc1F)Nc1cc(-c2ccccc2-c2nnn[nH]2)cc2c1OCCCC2c1ccccc1 (single isomer, unassigned) [10 (En. 1), 1-(7-(2-(1H-tetrazol-5-yl)phenyl)-5-phenyl-2,3,4,5-tetrahydrobenzo[b]oxepin-9-yl)-3-(2-fluorophenyl)urea], the IC50 rises from 381 nM to 1450 nM (3.8-fold). The first is the more potent here.

For COCC(CC(=O)O)c1cc(Nc2ccc(C#N)cc2)c2c(c1)C(C1CC1)CCCO2 (single isomer, unassigned) [131 (dia. 1), 3-(9-(4-Cyanophenylamino)-5-cyclopropyl-2,3,4,5-tetrahydrobenzo[b]oxepin-7-yl)-4-methoxybutanoic acid], the IC50 was 25.6 nM.
